The values that follow come from US20040072222A1, “Peptide analogues of myelin basic protein epitopes in the treatment of experimental autoimmune encephalomyelitis (eae) and multiple sclerosis (ms)” (priority 2003, published 2004).

Entries after “also recorded” stand apart in the source; their conditions may differ. Where two headings read alike, the source gives them in different places. Where no end group is shown, it is not given here. A value given as a limit tells only on which side of the number the result lay.

The subject of assay [1] is demyelination and inflammation in the spinal cord. Description: Histopathological examination of spinal cord sections (Luxol fast blue / Nuclear Fast Red). Format: in vivo, Lewis rats. The note with it: for spinal cord demyelination and inflammation on co-immunization with MBP72-85: day 15 after immunization.
Assay [2] relates to human peripheral blood T cells. The experiment in a line: Activation and proliferation of human peripheral blood T cells. The settings on record: for reversal of agonist effect on human T cell activation and proliferation: co-culturing of the cells with antagonist peptide; for biological activity in human peripheral blood T cells relative to linear analogue: compared with linear MBP72-85 / Ala81MBP72-85; for effect on human T cell activation and proliferation: agonist peptides, linear vs cyclic. Type of assay: cell-based.

For assay [3], the system named is EAE in Lewis rats. The experiment in a line: Induction-inhibition and assessment of EAE (clinical score). Type of assay: in vivo. The settings on record: for inhibition of MBP72-85-induced EAE (clinical signs) on co-injection: co-injected with MBP72-85, Lewis rats; for inhibition of MBP72-85-induced EAE on co-injection: analogue 500 μg co-injected with MBP72-85 25 μg, FIG. 2/3; for induction of EAE: injected subcutaneously in Lewis rats; for peak clinical score, day following the initial injection / recovery from EAE: injected subcutaneously in Lewis rats (section B2).

The test system of assay [4] is EAE in Lewis rats. The settings on record: cited from earlier work.

For “Gln^1-Lys^2-Ser^3-Gln^4-Arg^5-Ser^6-Gln^7-Ala^8-Glu^9-Asn^10-Pro^11-Val^12-NH2 [c-Ala^81MBP72-85]”, the “spinal cord demyelination and inflammation on co-immunization with MBP72-85” value in assay [1] is “completely prevented”. In assay [2], the “reversal of agonist effect on human T cell activation and proliferation” value was “completely reversed”; the “biological activity in human peripheral blood T cells relative to linear analogue” value was “comparable”. For the same substance, the “inhibition of MBP72-85-induced EAE (clinical signs) on co-injection” value (“inhibition … (clinical signs) on co-injection” below) with EAE in Lewis rats [3] was “completely prevented”.
Turning to “Gln-Lys-Ser-Gln-Arg-Ser-Gln-Ala^81-GluAsn-Pro-Val [Ala^81MBP72-85]”, the “spinal cord demyelination and inflammation on co-immunization with MBP72-85” value in assay [1] is “complete absence of inflammation and demyelination”. In assay [2], the “reversal of agonist effect on human T cell activation and proliferation” value is recorded as “completely reversed”. The “suppression of EAE induced by cyclic analogue on co-injection” value in the assay with EAE in Lewis rats [3] (co-injection with the inducing cyclic analogue) is on record as “completely suppressed”. Further, the “prevention of clinical and histopathological manifestations of disease induced by c-MBP72-85” value with EAE in Lewis rats [4] (Tselios et al 1999) is reported as “prevented”. Also, the “prevention of the induction of EAE by parent peptide MBP72-85” value in the assay on EAE in Lewis rats [4] (background, literature) is listed as “prevented the induction of EAE”.
As for “Val-His-Phe-Phe-Lys^91-Asn-Ile-Val-Thr-Ala^96-Arg-Thr-Pro^99 [cyclo-(91, 99) [Ala^96] MBP87-99]”, in the assay on EAE in Lewis rats [3], the “inhibition of MBP72-85-induced EAE on co-injection” value was “low inhibitory activity”.
For “Val-His-Phe-Phe-Arg^91-Asn-Ile-Val-Thr-Ala^96-Arg-Thr-Pro [[Arg^91,Ala^96]MBP87-99]”, in the assay with EAE in Lewis rats [3], the “inhibition of MBP72-85-induced EAE on co-injection” value was “completely prevented” and the “inhibition … (clinical signs) on co-injection” value is “completely prevented”.
Turning to “Val^87-His-Phe-Phe-Arg^91-Asn-Ile-Val-Thr-Ala^96-Arg-Thr-Pro^99 [cyclo-(87, 99)[Arg^91,Ala^96]MBP87-99]”, in the assay with EAE in Lewis rats [3], the “inhibition of MBP72-85-induced EAE on co-injection” value was “strong inhibitor” and the “inhibition … (clinical signs) on co-injection” value is “completely prevented”.
Turning to “Gln^1-Lys^2-Ser^3-Gln^4-Arg^5-Ser^6-Gln^7-Asp^8-Glu^9-Asn^10-Pro^11-Val^12-NH2 [c-MBP72-85]”, in assay [2], the “effect on human T cell activation and proliferation” value is recorded as “comparable effect”; the “biological activity in human peripheral blood T cells relative to linear analogue” value is listed as “comparable”. Further, in the assay with EAE in Lewis rats [3], the “induction of EAE” value is “induce EAE”; the “peak clinical score, day following the initial injection” value was 15 days; the “recovery from EAE” value is given as “eventual complete recovery in all animals”. For the same substance, in the assay on EAE in Lewis rats [3] (listed as 1), the “induction of EAE” value is “comparable with that of linear agonist”. Besides, the “induction of EAE” value in the assay with EAE in Lewis rats [4] (background, literature) is “comparable potency to MBP72-85”.
As for “QKSQRSQDENPV [MBP72-85, reference compound]”, the “spinal cord histopathology after immunization with the peptide alone” value in assay [1] (day 15 / peak of disease) is “extensive perivascular and parenchymal inflammation; also recorded: multiple perivascular infiltrates”. Also, the “effect on human T cell activation and proliferation” value in assay [2] is “comparable effect”. In the assay on EAE in Lewis rats [3] (25 μg peptide), the “complete recovery in all animals” value was not above 18 days and the “peak clinical score, day after the initial injection” value worked out at 13 days. In the assay on EAE in Lewis rats [3], the “induction of EAE” value was “induced an acute monophasic disease; also recorded: induce EAE”; the “peak clinical score, day following the initial injection” value stood at 15 days; the “recovery from EAE” value is “eventual complete recovery in all animals”. The “induction of EAE” value in the assay on EAE in Lewis rats [4] (background, literature) is on record as “induce EAE”.
